From patent publication US20220017484A1, “INHIBITOR OF BRUTON TYROSINE KINASE” (BEIJING RECIPROCAPHARMACEUTICALS CO., LTD., priority 2018, published 2022)

Columns and labels:
[1] = system: OCI-LY7 cells; assay: Cell viability assay (CellTiter-Glo, 72 h); assay type: cell-based; settings: Homo sapiens, read-out: Results from inhibition of OCI-LY7 cells (IC50)
Protocol: An in vitro cell viability assay was conducted using the compounds of Examples 1-50 following the steps below:
1. After OCI-LY7 cells were recovered, they were cultured at 37° C., 5% CO2, and 95% humidity.
2. For the compounds of Examples 1-50, 8 compound solutions at different concentrations were prepared, respectively. 50 μL of the compound solution at each concentration was added to a 96-well black plate.
3. The cell concentration was adjusted to about 30,000 cells/mL. 100 μL of cell suspension was added to the 96-well plate, and mixed well. The final cell density was about 3,000 cells/well.
4. The 96-well plate was placed at 37° C., 5% CO2, and 95% humidity for 72 h.
5. The cell survival rate was measured by the method of CellTiter-Glo® Luminescent Cell Viability Assay (Promega, Cat #G7572). The fluorescence data were read on a microplate reader (EnVision™, a multi-function microplate detector, PerkinElmer).
6. The obtained fluorescence data were analyzed using GraphPad Prism software. The cell survival rate was calculated for each example compound at each concentration, and the IC50 interval of each example compound was obtained.

[2] = target: Btk (Homo sapiens, UniProt Q06187); assay: Analysis of in vitro inhibitory activity of Btk (cell-free TR-FRET kinase assay); assay type: biochemical; settings: for IC50: cell-free TR-FRET, ATP at Km, 1 h, read-out: Efficacy (Btk IC50); for inhibitory effects against Btk (in words): summary of Table 1 efficacy data
Btk, sequence (Q06187 whole entry): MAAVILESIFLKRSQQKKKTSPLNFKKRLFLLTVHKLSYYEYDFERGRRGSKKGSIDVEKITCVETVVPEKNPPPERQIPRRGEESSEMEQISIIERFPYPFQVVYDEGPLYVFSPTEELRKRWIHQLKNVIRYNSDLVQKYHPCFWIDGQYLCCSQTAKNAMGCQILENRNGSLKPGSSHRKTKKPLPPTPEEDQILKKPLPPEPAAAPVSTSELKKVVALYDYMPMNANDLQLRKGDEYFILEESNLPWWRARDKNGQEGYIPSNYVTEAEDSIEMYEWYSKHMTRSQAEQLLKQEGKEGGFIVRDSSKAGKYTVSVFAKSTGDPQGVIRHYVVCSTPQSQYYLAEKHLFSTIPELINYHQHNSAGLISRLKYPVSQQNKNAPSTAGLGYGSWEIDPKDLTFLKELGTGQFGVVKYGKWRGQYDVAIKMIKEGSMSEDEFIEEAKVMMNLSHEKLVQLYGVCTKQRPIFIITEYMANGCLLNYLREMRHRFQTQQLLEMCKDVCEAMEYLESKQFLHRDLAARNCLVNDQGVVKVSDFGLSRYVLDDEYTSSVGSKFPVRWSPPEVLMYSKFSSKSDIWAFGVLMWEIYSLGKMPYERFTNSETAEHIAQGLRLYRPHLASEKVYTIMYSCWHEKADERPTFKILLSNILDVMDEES
Protocol: In a cell-free kinase assay, the method described below or a similar method was used to determine the half inhibitory concentration (IC50) of the compound of the present invention on Btk.
Btk kinase activity was determined using a time-resolved fluorescence resonance energy transfer (TR-FRET) methodology. Measurements were performed in a reaction volume of 50 μL using 96-well assay plates. […] The reaction was quenched by the addition of 1.2 equivalents of EDTA (relative to divalent cation) in […] of 1× Lance buffer (Perkin-Elmer). Streptavidin-APC (Perkin-Elmer) and Eu-labeled p-Tyr100 antibody (Perkin-Elmer) in 1× Lance buffer were added in a volume of 25 μL to give final concentrations of 100 nM and 2.5 nM, respectively. The mixture was allowed to incubate for 1 h. The TR-FRET signal was measured on a multimode plate reader at an excitation wavelength (λEx) of 330 nm and detection wavelengths (λEm) of 615 and 665 nm. The activity was determined by the ratio of fluorescence at 665 nm to that at 615 nm. For each compound, the enzyme activity was measured in the presence of different concentrations of the compound. Negative control reactions were performed in the absence of inhibitor in replicates of six, and two no-enzyme controls were used to determine baseline fluorescence levels. IC50 was obtained by fitting using the program Batch Ki (Kuzmic, et al. (2000), Anal. Biochem. 286:45-50).
The Example compounds 1-50 of the present invention were synthesized according to the above Synthetic Schemes I to VII. In the analysis of in vitro inhibitory activity of Btk, the IC50 values of the Example compounds 1-50 of the present invention were determined. The IC50 values are given according to the interval of the IC50 value, where “+++” means IC50<100 nM; “++” means 100 nM≤IC50<1000 nM; and “+” means 1000 nM≤IC50<10000 nM.

| IC50 [1] [nM] | IC50 [2] [nM] | SMILES | inhibitory effects against Btk (in words) [2] |
| --- | --- | --- | --- |
| < 500 | < 100 | [2H]C([2H])=C([2H])C(=O)N(C)c1cccc(Nc2ncc3cc(-c4c(C)cc[nH]c4=O)ccc3n2)c1 [Example 45] | particularly excellent inhibitory effects |
| < 500 | < 100 | CCC(=O)Nc1cccc(Nc2ncc3cc(-c4c(C)cc[nH]c4=O)ccc3n2)c1 [Example 3] | – |
| 500 to 2500 | < 100 | Cc1cc[nH]c(=O)c1-c1ccc2nc(Nc3cccc(NC(=O)CN)c3)ncc2c1 [Example 9] | – |
| < 500 | < 100 | Cc1cc[nH]c(=O)c1-c1ccc2nc(Nc3cccc(NC(=O)/C=C/CN4CCCCC4)c3)ncc2c1 [Example 7] | – |
| < 500 | < 100 | Cc1cc[nH]c(=O)c1-c1ccc2nc(Nc3cccc(NC(=O)/C=C/CN(C)C)c3)ncc2c1 [Example 5] | particularly excellent inhibitory effects |
| < 500 | < 100 | C/C=C/C(=O)Nc1cccc(Nc2ncc3cc(-c4c(C)cc[nH]c4=O)ccc3n2)c1 [Example 4] | – |
| < 500 | < 100 | C=CC(=O)NCC(=O)Nc1cccc(Nc2ncc3cc(-c4c(C)cc[nH]c4=O)ccc3n2)c1 [Example 10] | – |
| < 500 | < 100 | C=CC(=O)N(c1cccc(Nc2ncc3cc(-c4c(C)cc[nH]c4=O)ccc3n2)c1)C(C)C [Example 27] | – |
| < 500 | < 100 | C=CC(=O)Nc1cccc(Nc2ncc3cc(-c4c(C)cc[nH]c4=O)ccc3n2)c1 [Example 2] | particularly excellent inhibitory effects |
| ≥ 2500 | < 100 | C=CC(=O)N(CCN(C)C)c1cccc(Nc2ncc3cc(-c4c(C)cc[nH]c4=O)ccc3n2)c1 [Example 43] | – |
| < 500 | < 100 | CNc1cccc(Nc2ncc3cc(-c4c(C)cc[nH]c4=O)ccc3n2)c1 [Example 22] | – |
| 500 to 2500 | < 100 | CCN(C(=O)/C=C/CN(C)C)c1cccc(Nc2ncc3cc(-c4c(C)cc[nH]c4=O)ccc3n2)c1 [Example 34] | particularly excellent inhibitory effects |
| < 500 | < 100 | Cc1cc[nH]c(=O)c1-c1ccc2nc(Nc3cccc(NC(=O)/C=C/CN4CCOCC4)c3)ncc2c1 [Example 8] | – |
| < 500 | < 100 | Cc1cc[nH]c(=O)c1-c1ccc2nc(Nc3cccc(NC(=O)[C@@H](N)C(C)C)c3)ncc2c1 [Example 18] | – |
| < 500 | < 100 | Cc1cc[nH]c(=O)c1-c1ccc2nc(Nc3cccc(N)c3)ncc2c1 [Example 1] | – |
| < 500 | < 100 | Cc1cc[nH]c(=O)c1-c1ccc2nc(Nc3cccc(NC(=O)CCN(C)C)c3)ncc2c1 [Example 11] | – |
| 500 to 2500 | 100 to 1000 | Cc1cc[nH]c(=O)c1-c1ccc2nc(Nc3cccc(NC(=O)[C@@H]4CCCN4)c3)ncc2c1 [Example 20] | – |
| < 500 | < 100 | C=CC(=O)N[C@H](C(=O)Nc1cccc(Nc2ncc3cc(-c4c(C)cc[nH]c4=O)ccc3n2)c1)C(C)C [Example 19] | particularly excellent inhibitory effects |
| < 500 | < 100 | Cc1cc[nH]c(=O)c1-c1ccc2nc(Nc3cccc(N(C)C(=O)/C=C/CN(C)C)c3)ncc2c1 [Example 24] | particularly excellent inhibitory effects |
| < 500 | < 100 | CCNc1cccc(Nc2ncc3cc(-c4c(C)cc[nH]c4=O)ccc3n2)c1 [Example 25] | – |

More lines, now with the values behind:

| SMILES | IC50 [1] [nM] | IC50 [2] [nM] | inhibitory effects against Btk (in words) [2] |
| --- | --- | --- | --- |
| C=CC(=O)N(CC)c1cccc(Nc2ncc3cc(-c4c(C)ccn(-c5ncco5)c4=O)ccc3n2)c1 [Example 32] | 500 to 2500 | 100 to 1000 | – |
| C=CC(=O)N(CC)c1cccc(Nc2ncc3cc(-c4c(C)ccn(C(=O)OCc5ccccc5)c4=O)ccc3n2)c1 [Example 31] | < 500 | < 100 | – |
| Cc1ccn(C)c(=O)c1-c1ccc2nc(Nc3cccc(N)c3)ncc2c1 [Example 16] | 500 to 2500 | 1000 to 10000 | – |
| C=CC(=O)N(CCOC)c1cccc(Nc2ncc3cc(-c4c(C)cc[nH]c4=O)ccc3n2)c1 [Example 38] | < 500 | < 100 | particularly excellent inhibitory effects |
| C=CC(=O)Nc1cc(Nc2ncc3cc(-c4c(C)cc[nH]c4=O)ccc3n2)ccc1OCCOC [Example 6] | < 500 | < 100 | – |
| C=CC(=O)N(CC)c1cccc(Nc2ncc3cc(-c4c(C)ccn(C(C)=O)c4=O)ccc3n2)c1 [Example 29] | 500 to 2500 | 100 to 1000 | – |
| [2H]C([2H])=C([2H])C(=O)N(CC)c1cccc(Nc2ncc3cc(-c4c(C)cc[nH]c4=O)ccc3n2)c1 [Example 48] | < 500 | < 100 | – |
| C=CC(=O)Nc1cccc(Nc2ncc3cc(-c4c(C)ccn(-c5cccc(C(F)(F)F)c5)c4=O)ccc3n2)c1 [Example 13] | < 500 | 100 to 1000 | – |
| [2H]C([2H])=C([2H])C(=O)N(c1cccc(Nc2ncc3cc(-c4c(C)cc[nH]c4=O)ccc3n2)c1)C([2H])([2H])C([2H])([2H])[2H] [Example 49] | < 500 | < 100 | – |
| C=CC(=O)N(CC)c1cccc(Nc2ncc3cc(-c4c(C)ccn(C(=O)N(C)C)c4=O)ccc3n2)c1 [Example 30] | ≥ 2500 | 100 to 1000 | – |
| C=CC(=O)N1CCOc2ccc(Nc3ncc4cc(-c5c(C)cc[nH]c5=O)ccc4n3)cc21 [Example 42] | 500 to 2500 | < 100 | – |
| C=CC(=O)N(CC)c1cccc(Nc2ncc3cc(-c4c(C)ccn(C(=O)OCC)c4=O)ccc3n2)c1 [Example 28] | < 500 | < 100 | – |
| C=CC(=O)Nc1cc(Nc2ncc3cc(-c4c(C)cc[nH]c4=O)ccc3n2)ccc1OC [Example 36] | < 500 | < 100 | – |
| C=CC(=O)N(CC)c1cc(Nc2ncc3cc(-c4c(C)cc[nH]c4=O)ccc3n2)ccc1OC [Example 37] | < 500 | < 100 | particularly excellent inhibitory effects |
| C=CC(=O)Nc1cccc(Nc2ncc3cc(-c4c(C)ccn(C)c4=O)ccc3n2)c1 [Example 17] | 500 to 2500 | 100 to 1000 | – |
| [2H]C([2H])([2H])N(C(=O)C=C)c1cccc(Nc2ncc3cc(-c4c(C)cc[nH]c4=O)ccc3n2)c1 [Example 44] | < 500 | < 100 | particularly excellent inhibitory effects |
| C=CC(=O)N1CCC[C@H]1C(=O)Nc1cccc(Nc2ncc3cc(-c4c(C)cc[nH]c4=O)ccc3n2)c1 [Example 21] | < 500 | < 100 | – |
| Cc1ccn(-c2ccc(N3CCOCC3)cc2)c(=O)c1-c1ccc2nc(Nc3cccc(N)c3)ncc2c1 [Example 14] | < 500 | 100 to 1000 | – |
| [2H]C([2H])=C([2H])C(=O)N(CCOC)c1cccc(Nc2ncc3cc(-c4c(C)cc[nH]c4=O)ccc3n2)c1 [Example 50] | < 500 | < 100 | particularly excellent inhibitory effects |
| C=CC(=O)N(CC)c1cc(Nc2ncc3cc(-c4c(C)cc[nH]c4=O)ccc3n2)ccc1C [Example 40] | 500 to 2500 | < 100 | – |
| C=CC(=O)N(CC)c1cc(Nc2ncc3cc(-c4c(C)cc[nH]c4=O)ccc3n2)ccc1F [Example 39] | 500 to 2500 | < 100 | – |
| [2H]C([2H])=C([2H])C(=O)N(c1cccc(Nc2ncc3cc(-c4c(C)cc[nH]c4=O)ccc3n2)c1)C([2H])([2H])[2H] [Example 46] | < 500 | < 100 | particularly excellent inhibitory effects |
| Cc1cc[nH]c(=O)c1-c1ccc2nc(Nc3ccc4c(c3)NCCO4)ncc2c1 [Example 41] | < 500 | < 100 | – |
| C=CC(=O)Nc1cccc(Nc2ncc3cc(-c4c(C)ccn(-c5ccc(N6CCOCC6)cc5)c4=O)ccc3n2)c1 [Example 15] | < 500 | 100 to 1000 | – |
